The source of these data is ChEMBL document CHEMBL4368934, “Chemistry and biology of ophiobolin A and its congeners” (Bioorg Med Chem Lett, 2019).

In brackets after ≈: the same amount, converted by molar mass.

The subject of data set [1] is Mycobacterium tuberculosis. The data set can be described thus: Antibacterial activity against Mycobacterium tuberculosis H37Ra by microplate alamar blue assay. Format: functional, organism-based.
For data set [2], the system named is Plasmodium falciparum. The data set can be described thus: Antimalarial activity against Plasmodium falciparum K1 by [3H]-hypoxanthine incorporation assay. In kind it is functional, organism-based.
The nature of data set [3]: Cytotoxicity against mouse P388/R cells after 72 hrs by MTT assay. Format: functional, cell-based. Particulars: P388, 72 h. (In general: Formazan colour is commonly taken as a measure of viable cells.)
In data set [4] the test system is Panel NCI-60 (60 carcinoma cell lines). Description: Cytotoxicity against human NCI60 cells. In kind it is functional.
Data set [5] can be described thus: Acute toxicity in iv dosed mouse. In kind it is organism-based. The following applies: in vivo.
The nature of data set [6]: Acute toxicity in sc dosed mouse. Format: organism-based. The following applies: in vivo.

As usually defined, the IC50 is the concentration that gives 50% inhibition. As for `C/C(=C\[C@H](O)[C@@H](O)[C@H](C)[C@H]1CC[C@@]2(C)C[C@@H]3[C@H](C)CC(=O)[C@@H]3/C(C=O)=C\C[C@H]12)C(=O)O`, the results for the IC50 in data set [1] and in data set [2] were 200 µg/mL (≈ 462 µM) and 13 µg/mL (≈ 30.1 µM), respectively.
`CC(C)=C/C=C/[C@H](C)C1=CC[C@]2(C)C[C@H]3[C@H](C(=O)C[C@@]3(C)O)/C(C=O)=C\C[C@@H]12` showed an IC50 in data set [3] of 270 to 650 nM.
As usually defined, the GI50 is the concentration that inhibits growth by half. The low end stands for more potent growth inhibition, the high end for less potent growth inhibition. As a reminder, the LD50 is the dose at which mortality reaches 50%. High values mean lower toxicity, low ones greater toxicity. Molecule `CC(C)=C[C@H]1C[C@H](C)[C@]2(CC[C@]3(C)C[C@H]4[C@H](C(=O)C[C@@]4(C)O)/C(C=O)=C\C[C@H]32)O1` [OPHIOBOLIN A] returned a GI50 in data set [4] of 72 nM. The CC50 in data set [4] (read-out: LC50 (the source's name)) was found to be 629 nM. In addition, the LD50 in data set [5] was found to be 12 mg/kg; in data set [6], 238 mg/kg.
